Data: paper PMC12040169 (PLOS Biology, 2025)

assay: in vitro; conditions: human, hela cells, % viability

Row | SMILES | viability at 28.5 h, 10 µM
1 | CO/N=C(\C(=O)O)c1cn2cccnc2n1 [CBK262252] | 91.5%
2 | Cc1cccc(-c2ncc(C(=O)NCCN3CCOCC3)cc2-c2ccc(O)cc2)c1 [CBK037435] | 105%
3 | COC(=O)Nc1nc2cc(F)c(Cl)cc2[nH]1 [CBK026927] | 102%
4 | CC(=O)Nc1c(O)nc(SCC(=O)Nc2ccc(C(C)=O)cc2)[nH]c1=O [CBK268527] | 106%
5 | Nn1cnn2c(SCC(=O)c3cccs3)nnc12 [CBK263184] | 105%
6 | COc1nccnc1OC1CCN(CCc2ccc(F)cc2)CC1 [CBK084259] | 102%
7 | Cn1c(=O)oc2cc(S(=O)(=O)NCCC(=O)O)ccc21 [CBK267567] | 89.3%
8 | O=C(NC(c1ccccc1)c1cccnc1)C1CCN(C(=O)CN2C(=O)c3ccccc3C2=O)CC1 (stereo not shown) [CBK060515] | 108%
9 | CN1CCN(c2nccnc2-c2ccoc2)CC1 [CBK088834] | 98.6%
10 | CCN(C)c1c(C)nc2c(OCc3ccccc3C(=O)OC)cccn12 [CBK147321] | 95.5%
11 | CC(C)(CN1CCCC1)NC(=O)N1CCN(Cc2cccc(O)c2)CC1 [CBK307380] | 86.6%
12 | Cc1ccccc1OCC(=O)Nc1ccc(CSc2ccccc2)cc1 [CBK264651] | 93%
13 | CCCn1nc(C)c(-c2cncn2CCCN2CCCCC2)c1C [CBK281496] | 100%
14 | CC(=O)Nc1ccc(OCC(O)CNC2CCCC2)cc1 (stereo not shown) [CBK267857C] | 87.6%
15 | O=C(NCCc1c[nH]c2ccc(Cl)cc12)c1cccnc1 [CBK159778] | 106%
16 | CC(C)C(=O)NCCn1nc(-c2ccco2)ccc1=O [CBK283863] | 97%
17 | O=C(Nc1ccc2[nH]ccc2c1)N1CCCC(CO)C1 (stereo not shown) [CBK156044] | 86.8%
18 | CC(=O)N1CCC(Cn2nc(-c3ccccc3)ccc2=O)CC1 [CBK282405] | 109%
19 | COc1ccc(C(NC(=O)CSCc2cccc(C(=O)O)c2)c2ccc(OC)cc2)cc1 [CBK296680] | 97.6%
20 | C(=N\Nc1nnnn1-c1ccccc1)/c1ccco1 [CBK007334] | 109%
21 | Cc1ccc(NC(=O)CN2C(=O)S/C(=C\c3cc(C)n(-c4ccc(C(=O)O)cc4)c3C)C2=O)cc1 [CBK264465] | 91.6%
22 | COc1cnc(-c2cc(Cl)cc(Cl)c2)c(NC(=O)c2ccsc2)n1 [CBK145340] | 87.8%
23 | COc1ccc(Oc2nccnc2N2CCN(CCOc3ccccc3)CC2)cc1OC [CBK083061T] | 86.3%

Row | SMILES | viability at 28.5 h, 10 µM
24 | O=C(O)CCc1c(-c2ccccc2)cc2ccccn12 [CBK266308] | 109%
25 | Cc1cccc(=O)n1CCC(=O)N1CCCCC1CN1CCOCC1 (stereo not shown) [CBK306528] | 109%
26 | O=C(N[C@H]1CCN(Cc2ccccc2)C1)c1cnc(-c2ccccc2)c(-c2ccncc2)c1 [CBK036639] | 84.7%
27 | COc1ccc(C(C)c2cc3c(cc2OC)OCO3)c(F)c1 (stereo not shown) [CBK200112] | 53.3%
28 | O=C(O)C1Cc2c([nH]c3ccccc23)C(c2cc(Br)ccc2O)N1 (stereo not shown) [CBK260946] | 88.1%
29 | CC(NC(=O)Cc1cccs1)c1nc2cccnc2n1C(C)C (stereo not shown) [CBK283828] | 81%
30 | CN(Cc1ccccc1)C(=O)c1c[nH]nc1C1CCCCN1Cc1ccccc1Cl (stereo not shown) [CBK285936] | 88.1%
31 | Cc1nc(SCc2cccc(C(=O)O)c2)nc2c1CCCC2 [CBK266997] | 87.3%
32 | COc1ccc(C(=O)N2CCN(Cc3cccnc3)CC2)cc1OC [CBK263321] | 99.3%
33 | O=C(Nc1cccc(C(F)(F)F)c1)N1CCC(n2c(=O)[nH]c3ccccc32)CC1 [CBK149845] | 84.6%
34 | CN(Cc1nc(-c2ccccc2)no1)C(=O)C1CCOC1 (stereo not shown) [CBK306755] | 107%
35 | Cc1nc(CC(=O)Nc2ccc(N3CCOCC3)cn2)cs1 [CBK305251] | 91%
36 | c1ccc(SCc2csc(-c3ccc4c(c3)OCO4)n2)nc1 [CBK270294] | 87.7%
37 | CC(C)C(=O)NC(C)c1nc(-c2ccncc2)n[nH]1 (stereo not shown) [CBK104021] | 113%
38 | COc1cccc2c1OCC[C@@H]2Oc1cncc(N2CCNCC2)n1 [CBK172305G] | 106%
39 | COC(=O)C(C)CSc1ccc(C(C)(C)C)cc1 (stereo not shown) [CBK010499] | 107%
40 | O=C(Nc1nccs1)C1CCCN(C(=O)c2ccco2)C1 (stereo not shown) [CBK296725] | 98.7%
41 | O=C(CC1SC(N2CCOCC2)=NC1=O)Nc1cccc(C(=O)O)c1 (stereo not shown) [CBK300498] | 101%
42 | CCOC(=O)c1c(NC(=S)NCc2ccccn2)sc2c1CCCCC2 [CBK266954] | 106%
43 | CN1C(=O)C2(CC(=O)N(Cc3ccccc3)C2=O)c2cc(F)ccc21 (stereo not shown) [CBK075268] | 98.6%
44 | FC(F)(F)c1ccnc(OCCNc2ccccc2)c1 [CBK115824] | 90.5%
45 | CCCCN(C)S(=O)(=O)NCc1cn2ccccc2n1 [CBK306329] | 97.9%
46 | O=[N+]([O-])c1ccccc1OCCCn1c2ccccc2c2ccccc21 [CBK264799] | 92.1%

Row | SMILES | viability at 28.5 h, 10 µM
47 | COc1ccc(-n2cc(-c3ccc(C(F)(F)F)cc3)nn2)cc1OC [CBK112952] | 96.8%
48 | Cc1nccn1CC1(O)CCN(C(=O)Cc2cccc(F)c2)CC1 [CBK282184] | 109%
49 | CCCNCC(=O)N1CCN(C(=O)c2ccc(C)cc2)CC1 [CBK025546] | 103%
50 | Cn1ccc(CN2CCOC(c3nc(C(C)(C)C)cs3)C2)cc1=O (stereo not shown) [CBK305771] | 108%
51 | CN1CCC[C@H]1c1nc(-c2ccc(-n3ccnc3)nc2)no1 [CBK288893] | 96.6%
52 | CC(=O)N1CCc2c(sc(NC(=O)c3ccc(N(C)C)cc3)c2C#N)C1 [CBK304333] | 94.7%
53 | CC(=O)Oc1ccc(C(=O)NCc2ccc3c(c2)OCO3)cc1 [CBK264372] | 91.2%
54 | CCN(CC)Cc1c(O)ccc2occ(C(=O)c3cc(OC)ccc3OC)c12 [CBK261949] | 97%
55 | COc1nccnc1OC1CCN(CCCO)CC1 [CBK084254] | 97.6%
56 | O=C(c1cccs1)N1CCOC(Cn2ccnc2)C1 (stereo not shown) [CBK282256] | 103%
57 | COc1ccc(OCC(=O)Nc2nonc2-c2ccccc2)cc1 [CBK287798] | 93.9%
58 | Cc1ccc(-c2ccccc2)n1-c1ccc(O)c(C(=O)O)c1 [CBK116375] | 103%
59 | CC(=O)Nc1nc(OCC(F)(F)F)cnc1-c1ccc2c(c1)OCO2 [CBK145427] | 91.8%
60 | COc1c(C)cc(-c2[nH]c(C)nc2C)cc1C [CBK306941] | 86.6%
61 | Cc1ccc(C2=CCN(CC(=O)Nc3nccs3)CC2)o1 [CBK283557] | 93.7%
62 | O=C(NCc1cccnc1)c1ccccc1NS(=O)(=O)c1ccc(F)cc1 [CBK269754] | 70.8%
63 | Cc1ccccc1-c1ccccc1CC1(C(=O)N(C)C)CCN(C(=O)C2CC=CCC2)CC1 (stereo not shown) [CBK285733] | 97.2%
64 | COc1ccc2cc(/C=C(\C#N)c3nc(-c4cc5c(ccc6ccccc65)oc4=O)cs3)c(Cl)nc2c1 [CBK261636] | 94%
65 | CC(Cc1c[nH]c2ccccc12)NC(=N)NC(=N)N (stereo not shown) [CBK268251C] | 91.7%
66 | Cc1nc(NCCN2CCCC(CO)C2)nc2c1CCCC2 (stereo not shown) [CBK307430] | 82%
67 | Cc1ccccc1S(=O)(=O)Nc1nccnc1-c1ccc2c(c1)OCO2 [CBK050941] | 122%
68 | CC(Oc1cccc(C#N)c1)C(=O)NCC1(N2CCOCC2)CCSC1 (stereo not shown) [CBK305780] | 94.8%
69 | O=C1NCCN/C1=C\C(=O)c1ccc(Br)cc1 [CBK261427] | 90.2%

Row | SMILES | viability at 28.5 h, 10 µM
70 | CC(=O)Nc1nn(Cc2cc3c(cc2Cl)OCO3)c2ccccc12 [CBK048251] | 96.5%
71 | CC(=O)NCCn1cc2c(n1)[C@H]1CN(C(=O)CC(C)(C)C)C[C@H]1CC2 [CBK284592] | 93.8%
72 | O=c1[nH]c2ncc(-c3ccsc3)nc2n1CCCO [CBK065044] | 94.9%
73 | CC(C)Cc1nnc(-c2ccccc2Cl)n1CC1CC1 [CBK200097] | 98.1%
74 | Cc1nc(C2CCN(C(=O)c3cccnc3)CC2)c2sccn12 [CBK282233] | 106%
75 | CS(=O)(=O)c1ccc(-n2nnnc2CN2CCC3(CCC3)C2)cc1 [CBK306262] | 79.6%
76 | O=C(Cn1c(=O)cc(O)c2ccccc21)Nc1cccc(F)c1 [CBK291242] | 98.1%
77 | O=C1c2ccccc2C(=O)N1CCc1nc2c3c4c(sc3ncn2n1)CCCCC4 [CBK268327] | 96.6%
78 | O=C(Cn1nnc2ccccc2c1=O)NC1CCN2CCCCC12 (stereo not shown) [CBK305589] | 105%
79 | Cc1cccc([C@@H]2CN(Cc3ccccc3)C[C@]23CCCCC(=O)N3)n1 [CBK283341] | 97.1%
80 | O=C(c1ccc(F)cc1)C1CCN(Cc2ccc3ccccc3c2)CC1 [CBK149122] | 79.9%
81 | O=C(c1ccccc1F)N1CCC(c2n[nH]c3ncccc23)CC1 [CBK284903] | 91.7%
82 | Cc1ccc(C(=O)N2CN(C(=O)CNC(C)(C)C)CC2(C)C)cc1 [CBK089575C] | 88.6%
83 | Cc1cccc(-c2nccnc2C2CCCN(C(=O)COc3ccc(F)cc3)C2)c1 (stereo not shown) [CBK286241] | 88.1%
84 | CCC(=O)Nc1ccc(O)cc1C(=O)O [CBK126818] | 92.8%
85 | Oc1ccc2nc(N[C@H]3CC4CCC3C4)sc2c1Cl (stereo partly shown) [CBK024348G] | 62.1%
86 | Cc1onc(-c2ccccc2)c1C(=O)N1CCN(CCN2CCCC2)CC1 [CBK158558] | 98.6%
87 | Cc1ccc(NC(=O)OCCN2CCN(C)CC2)c(C)n1 [CBK200135] | 106%
88 | FC(F)(F)Oc1ccc(-c2c[nH]c([C@@H]3COCCN3Cc3c[nH]cn3)n2)cc1 [CBK289303] | 111%
89 | Cc1ccc(-c2nccnc2OCCC(C)C)c(C)c1 [CBK106988] | 102%

same assay, conditions: human, hela cells, % viability, bulk resorufin, single well

Row | SMILES | viability at 28.5 h, 10 µM
90 | CN1C(=O)N(C)C(=O)C(Cc2ccccn2)(Cc2ccccn2)C1=O [CBK269577] | 97.5%
91 | COc1ccc(N2C(=O)/C(=C/c3cc(C)n(-c4ccc(N5CCOCC5)cc4)c3C)C(=O)NC2=S)cc1 [CBK263798] | 89.7%
